# Test results reported in paper PMC5583328, “Probing the potential of mucus permeability to signify preterm birth risk” (Scientific Reports, 2017).
# Where a SMILES comes first, the peptide text is derived from it. The star is where a group is joined. 6FAM = O=C1OC2(c3ccc(O)cc3Oc3cc(O)ccc32)c2cc(C(=O)*)ccc21
# Assay: Microfluidic peptide partitioning and transport through cervical mucus
# Format: in vitro ADME, human
# Conditions: for average maximum concentration of peptide accumulated inside mucus (enrichment at mucus-buffer interface): 15-min experiment; for average maximum concentration of peptide accumulated inside mucus (enrichment at mucus-buffer interface) / concentration of the peptide at the end of the channel (450 μm): mean (SD)
# Protocol: We quantified partitioning and transport of the reporter peptides through mucus using a previously described microfluidics device, [38]. With this setup, a continuous aqueous flow of fluorescent peptides is generated within a micron-scale channel at carefully controlled rates adjacent to a stable mucus layer. The small sample volume (5 μL) required for this system is ideally suited for the study of native mucus samples, which are typically not available in large volumes. The peptide solutes partition into the mucus layer, and their subsequent transport is monitored with fluorescence microscopy (Fig. 3a and b).
# We quantified the transport of (+) and (−) charged peptides in mucus from 20 ovulating, 15 low-risk pregnant, and 9 high-risk pregnant patients (Table 2; see the table caption for specific information on cohort composition). […] Peptides at a concentration of 4 μM were introduced into the microfluidic channel in the presence of the mucus sample or in the presence of buffer. […] Concentration profiles of the fluorescent peptides were acquired through the center cross - section of the mucus channel (Fig. 3a,b, Methods).
# Peptides were synthesized, purified, and identified by the Swanson Biotechnology Center at the Koch Institute at MIT (Cambridge, MA, USA). […] Peptides were purified using reverse-phase high performance liquid chromatography. […] Before use in the microfluidic device, peptides were dissolved in H7 buffer (20 mM HEPES, 20 mM NaCl, pH 7) at a final concentration of 4 μM.
# Microfluidic polydimethylsiloxane devices were designed and fabricated as previously described, [38], and cured at 95 °C for 48–72 h prior to use. Devices bonded to microscope slides were mounted on an inverted epifluorescence microscope (IX-71, Olympus American, Central Valley, PA; or Zeiss Observer Z1) equipped with a 5x or 10x objective and LED light source or mercury lamp (excitation at 450–495 nm or 475 nm, respectively). All channels were washed with H7 buffer before use. The two valves were closed or opened by applying or releasing pressure with a 3-mL syringe connected to the valves via polytetrafluoroethylene tubing. All experiments were carried out at room temperature. One to two microliters of sample were injected to fill the main channel. The two valves were closed while the inlet and outlet channels were washed with H7 buffer. The top valve was opened, exposing the mucus interface. Twenty-five microliters of peptide solution were added to the reservoir of each inlet. The flow rate of the peptide solution into the inlet channel was determined by gravitational flow. […] At least two successful experimental replicates were obtained for each patient mucus sample, except for one sample of cervical mucus, for which only one measurement was obtained.
# Images were analyzed using ImageJ (v1.47; Wayne Rasband, National Institutes of Health, Bethesda, MD, USA; http://imagej.nih.gov/ij) and MATLAB software.
SMILES,"average maximum concentration of peptide accumulated inside mucus (enrichment at mucus-buffer interface) (mucus from high-risk pregnant patients (n = 9), microfluidic channel, 4 μM FAM-labelled peptide in H7 buffer pH 7, room temperature, epifluorescence read-out)","average maximum concentration of peptide accumulated inside mucus (enrichment at mucus-buffer interface) (mucus from low-risk pregnant women (n = 15), microfluidic channel, 4 μM FAM-labelled peptide in H7 buffer pH 7, room temperature, epifluorescence read-out)","average maximum concentration of peptide accumulated inside mucus (enrichment at mucus-buffer interface) (mucus from ovulating non-pregnant women (n = 20), microfluidic channel, 4 μM FAM-labelled peptide in H7 buffer (20 mM HEPES, 20 mM NaCl, pH 7), room temperature, epifluorescence read-out)","concentration of the peptide at the end of the channel (450 μm) (mucus from high-risk pregnant patients (n = 9), 4 μM FAM-labelled peptide in H7 buffer pH 7, room temperature, epifluorescence read-out)","retention (enrichment) of the peptide at the mucus barrier interface (mucus from high-risk pregnant patients (n = 9), microfluidic channel, 4 μM FAM-labelled peptide in H7 buffer pH 7, room temperature)","concentration of the peptide at the end of the channel (450 μm) (mucus from low-risk pregnant patients (n = 15), 4 μM FAM-labelled peptide in H7 buffer pH 7, room temperature, epifluorescence read-out)","peptide concentration gradient through the mucus layer compared with buffer (mucus from ovulating women (n = 20), microfluidic channel, 4 μM FAM-labelled peptide in H7 buffer pH 7, room temperature, epifluorescence read-out)"
C[C@H](NC(=O)c1ccc2c(c1)C1(OC2=O)c2ccc(O)cc2Oc2cc(O)ccc21)C(=O)N[C@@H](CCCCN)C(=O)N[C@@H](C)C(=O)N[C@@H](CCCCN)C(=O)N[C@@H](C)C(=O)N[C@@H](CCCCN)C(=O)N[C@@H](C)C(=O)N[C@@H](CCCCN)C(=O)N[C@@H](C)C(=O)N[C@@H](CCCCN)C(=O)N[C@@H](C)C(=O)N[C@@H](CCCCN)C(=O)N[C@@H](C)C(=O)N[C@@H](CCCCN)C(=O)N[C@@H](C)C(=O)N[C@@H](CCCCN)C(=O)N[C@@H](C)C(=O)N[C@@H](CCCCN)C(=O)N[C@@H](C)C(=O)N[C@@H](CCCCN)C(N)=O [(+) peptide] (6FAM-AKAKAKAKAKAKAKAKAKAK-NH2),19.3 µM,36.9 µM,10.6 µM,–,–,–,–
C[C@H](NC(=O)c1ccc2c(c1)C1(OC2=O)c2ccc(O)cc2Oc2cc(O)ccc21)C(=O)N[C@@H](CCC(=O)O)C(=O)N[C@@H](C)C(=O)N[C@@H](CCC(=O)O)C(=O)N[C@@H](C)C(=O)N[C@@H](CCC(=O)O)C(=O)N[C@@H](C)C(=O)N[C@@H](CCC(=O)O)C(=O)N[C@@H](C)C(=O)N[C@@H](CCC(=O)O)C(=O)N[C@@H](C)C(=O)N[C@@H](CCC(=O)O)C(=O)N[C@@H](C)C(=O)N[C@@H](CCC(=O)O)C(=O)N[C@@H](C)C(=O)N[C@@H](CCC(=O)O)C(=O)N[C@@H](C)C(=O)N[C@@H](CCC(=O)O)C(=O)N[C@@H](C)C(=O)N[C@@H](CCC(=O)O)C(N)=O [(−) peptide] (6FAM-AEAEAEAEAEAEAEAEAEAE-NH2),–,–,–,1.10 µM,not detected in any of the high-risk samples,0.50 µM,nearly identical with or without mucus present
